The text below walks through data of patent EP4722358A1 (AJOU UNIVERSITY INDUSTRY-ACADEMIC COOPERATION FOUNDATION, priority 2023, dated 2024).

What all share (assay): Enzymatic reaction rate with glycerol (MBTH assay)
Holding throughout (format): biochemical

The subject of experiment [1] is Klebsiella pneumoniae fused glycerol dehydratase fGDHt variant A177M(α). The note with it: substrate glycerol, MBTH assay 5 minutes, deoxygenated 35 mM phosphate buffer (pH 8.0), 2 µM coenzyme B12. Here is the method:
(§1) The activities of the wild-type and variant enzymes were measured at 25°C using 3-methyl-2-benzothiazolinone hydrazone (MBTH). To eliminate oxygen inactivation, the enzymes were incubated for 5 minutes in 35 mM phosphate buffer (pH 8.0) stirred with a negative pressure pump. The reaction was initiated by the addition of glycerol. The absorbance measured at 670 nm of the variant was compared with that of the wild-type fGDHt to determine the relative substrate activity (FIG. 10). The MBTH assay was performed as follows:
(§2) The reaction was then initiated by adding glycerol, the substrate to the assay mixture. The reaction was performed for 5 minutes and the reaction was terminated by adding 12 mg/mL MBTH and 0.1 M potassium citrate buffer (pH 3.6). Five minutes after the reaction was terminated, FeCl3 was added thereto and the reaction was performed for 15 minutes. The absorbance was measured at 670 nm.
(§3) Km and Kcat were calculated using the following Equation (Michaelis-Menten equation): v = (d[P])/(dt) = Vmax ([S])/(KM + [S]) = kcat [E]0 ([S])/(KM + [S]) [formula]
(§4) wherein Km is the Michaelis constant and Kcat is the enzyme turnover number.

The subject of experiment [2] is Klebsiella pneumoniae fused glycerol dehydratase fGDHt variant A177M/L113W(α/β). Particulars: substrate glycerol, MBTH assay 5 minutes, deoxygenated 35 mM phosphate buffer (pH 8.0), 2 µM coenzyme B12. The procedure:
as §1, §2, §3, §4

In experiment [3] the test system is Klebsiella pneumoniae fused glycerol dehydratase fGDHt variant A177M/L113W/M158W(α/β/β). Particulars: substrate glycerol, MBTH assay 5 minutes, deoxygenated 35 mM phosphate buffer (pH 8.0), 2 µM coenzyme B12. The procedure: as §1, §2, §3, §4
The subject of experiment [4] is Klebsiella pneumoniae fused glycerol dehydratase fGDHt variant A177M/M158W(α/β). Particulars: substrate glycerol. The procedure: as §1, §2, §3, §4
Experiment [5] deals with Klebsiella pneumoniae fused glycerol dehydratase fGDHt variant L113F(β). The note with it: substrate glycerol. The procedure:
as §1, §2, §3, §4

For experiment [6], the system named is Klebsiella pneumoniae fused glycerol dehydratase fGDHt variant L113W(β). Particulars: substrate glycerol, MBTH assay 5 minutes, deoxygenated 35 mM phosphate buffer (pH 8.0), 2 µM coenzyme B12. The procedure:
as §1, §2, §3, §4

Experiment [7] concerns Klebsiella pneumoniae fused glycerol dehydratase fGDHt variant M158W(β). Particulars: substrate glycerol, MBTH assay 5 minutes, deoxygenated 35 mM phosphate buffer (pH 8.0), 2 µM coenzyme B12. Here is the method: as §1, §2, §3, §4
For experiment [8], the system named is Klebsiella pneumoniae glycerol dehydratase, fGDHt (alpha-beta fused subunit, stop codon TAA changed to glutamine CAA), SEQ ID NO: 4. The note with it: substrate glycerol, MBTH assay 5 minutes, deoxygenated 35 mM phosphate buffer (pH 8.0), 2 µM coenzyme B12. The procedure:
as §1, §2, §3, §4

The mark [9] stands for this setting: FGDHt(A177M/M158W(α/β)), MBTH assay 5 minutes, deoxygenated 35 mM phosphate buffer (pH 8.0), 2 µM coenzyme B12.
The mark [10] stands for this setting: fGDHt (L113F(β)), MBTH assay 5 minutes, deoxygenated 35 mM phosphate buffer (pH 8.0), 2 µM coenzyme B12.

A word on the Km: it is the concentration of substrate that gives half-maximal velocity. `OCC(O)CO` [glycerol]: the Kcat came out at 107.48 ± 14.91 s⁻¹ in experiment [1]; 31.96 ± 9.42 s⁻¹ in experiment [2]; 28.93 ± 2.17 s⁻¹ in experiment [3]; 155.47 ± 13.23 s⁻¹ in experiment [4] (setting [9]); 208.62 ± 21.8 s⁻¹ in experiment [5] (setting [10]); 31.82 ± 10.99 s⁻¹ in experiment [6]. Moreover, in experiment [8], the Kcat is 230.28 ± 10.63 s⁻¹. For the same compound, the Km worked out at 360 ± 70 µM in experiment [1]; 140 ± 40 µM in experiment [3]; 150 ± 40 µM in experiment [4] (setting [9]); 240 ± 60 µM in experiment [5] (setting [10]); 520 ± 170 µM in experiment [6]; 340 ± 50 µM in experiment [7]. Besides, in experiment [8], the Km was 270 ± 30 µM. Moreover, the figures for the “kcat/Km higher than those of fGDHt” value in experiment [4] (A177M/M158W (α/β) compared with fGDHt) and in experiment [5] (L113F (β) compared with fGDHt) were 8% and 6%, respectively.
